# In patent US20090131481A1, “Transcription Factor Modulating Compounds and Methods of Use Thereof” (Paratek Pharmaceuticals, Inc., published 2009):
# Where two headings read alike, the source gives them in different places.
# Key:
# P. aeruginosa = P. aeruginosa cytotoxicity whole cell assay (J774 cells, LDH release); conditions: relative to vehicle treated cells infected with wild type P. aeruginosa
# ExsA = biological target: T1, ExsA (Pseudomonas aeruginosa, UniProt P26993); assay: Chemiluminescence-based ExsA-DNA binding assay; set-up: species or system P. aeruginosa; conditions: Table 7, cell-free system; read-out: ExsA EC50
# T1 construct: made in house
# T1 sequence (P26993 1-278): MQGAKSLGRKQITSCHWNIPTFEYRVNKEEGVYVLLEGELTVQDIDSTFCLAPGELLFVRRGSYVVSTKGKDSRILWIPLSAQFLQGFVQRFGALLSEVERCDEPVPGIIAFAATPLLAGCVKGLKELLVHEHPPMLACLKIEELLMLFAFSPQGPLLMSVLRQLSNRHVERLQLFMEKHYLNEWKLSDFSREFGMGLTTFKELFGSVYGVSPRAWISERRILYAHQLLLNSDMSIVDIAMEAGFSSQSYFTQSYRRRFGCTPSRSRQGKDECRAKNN
# LcrF (VirF) = LcrF (VirF) (Yersinia pestis, UniProt P28808); assay: biochemical; format: binding, Y. pseudotuberculosis
# LcrF (VirF), sequence (P28808 whole entry, looked up): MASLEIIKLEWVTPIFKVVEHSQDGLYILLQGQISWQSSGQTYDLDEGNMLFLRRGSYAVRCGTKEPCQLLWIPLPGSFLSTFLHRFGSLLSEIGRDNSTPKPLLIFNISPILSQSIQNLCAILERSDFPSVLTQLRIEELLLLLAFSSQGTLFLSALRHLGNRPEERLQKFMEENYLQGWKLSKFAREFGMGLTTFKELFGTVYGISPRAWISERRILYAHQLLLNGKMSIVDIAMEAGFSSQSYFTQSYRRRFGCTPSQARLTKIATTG
# Y. pseudotuberculosis = assay: microbe, parasite or virus in culture; conditions: Yersinia pseudotuberculosis, J774, read-out: % Cytotoxicity
# [1] = EC50 for inhibition of LcrF(VirF)-DNA binding
smiles,measurement,setting,value
O=C(Nc1ccc(-c2nc3ccc([N+](=O)[O-])cc3n2O)cc1)C1=Cc2ccccc2OC1 [EY],Cytotoxicity at 50 μg/mL Pseudomonas,P. aeruginosa,"* (reduced P. aeruginosa cytotoxicity to 99-75% of untreated, wild type levels at 50 mg/mL)"
same,EC50,ExsA,10 to 25 µM
same,EC50,LcrF (VirF); [1],10 to 25 µM
same,activity at 50 µg/mL,Y. pseudotuberculosis,< 75%
"CN(C)c1cc2nc(-c3ccc(NC(=O)/C=C/c4ccc(F)cc4)cc3)n(O)c2cc1[N+](=O)[O-] [EZ, N-[4-(5-Dimethylamino-1-hydroxy-6-nitro-1H-benzoimidazol-2-yl)-phenyl]-3-(4-fluorocinnamyl)-amide]",Cytotoxicity at 50 μg/mL Pseudomonas,P. aeruginosa,"** (reduced P. aeruginosa cytotoxicity below 75% of untreated, wild type levels at 50 mg/mL)"
same,EC50,ExsA,10 to 25 µM
same,EC50,LcrF (VirF); [1],> 25 µM
same,activity at 50 µg/mL,Y. pseudotuberculosis,75 to 99%
O=C(/C=C/c1ccc(F)cc1)Nc1ccc(-c2nc3ccc([N+](=O)[O-])cc3n2O)c(F)c1 [EI],Cytotoxicity at 50 μg/mL Pseudomonas,P. aeruginosa,"* (reduced P. aeruginosa cytotoxicity to 99-75% of untreated, wild type levels at 50 mg/mL)"
same,EC50,ExsA,10 to 25 µM
same,activity at 50 µg/mL,Y. pseudotuberculosis,75 to 99%
CCc1cc(-c2nc3ccc([N+](=O)[O-])cc3n2O)ccc1NC(=O)c1ccc(C(C)=O)cc1 [DL],Cytotoxicity at 50 μg/mL Pseudomonas,P. aeruginosa,"* (reduced P. aeruginosa cytotoxicity to 99-75% of untreated, wild type levels at 50 mg/mL)"
same,EC50,ExsA,10 to 25 µM
same,EC50,LcrF (VirF); [1],10 to 25 µM
same,activity at 50 µg/mL,Y. pseudotuberculosis,< 75%
"O=C(/C=C/c1ccc(-n2ccnc2)cc1)Nc1ccc(-c2nc3ccc([N+](=O)[O-])cc3n2O)cc1 [AM, (E)-N-[4-(1-Hydroxy-6-nitro-1H-benzoimidazol-2-yl)-phenyl]-3-(4-imidazol-1-yl-phenyl)-acrylamide]",Cytotoxicity at 50 μg/mL Pseudomonas,P. aeruginosa,"** (reduced P. aeruginosa cytotoxicity below 75% of untreated, wild type levels at 50 mg/mL)"
same,EC50,LcrF (VirF); read-out: EC50 for inhibition of LcrF(VirF)-DNA binding,> 25 µM
same,activity at 50 µg/mL,Y. pseudotuberculosis,75 to 99%
COc1cc(NC(=O)c2ccc(F)cc2)ccc1-c1nc2ccc([N+](=O)[O-])cc2n1O [DT],Cytotoxicity at 50 μg/mL Pseudomonas,P. aeruginosa,"* (reduced P. aeruginosa cytotoxicity to 99-75% of untreated, wild type levels at 50 mg/mL)"
same,EC50,ExsA,10 to 25 µM
same,EC50,LcrF (VirF); [1],> 25 µM
same,activity at 50 µg/mL,Y. pseudotuberculosis,< 75%
CC(=O)c1ccc(C(=O)Nc2ccc(-c3nc4ncc([N+](=O)[O-])cc4n3O)cc2)cc1 [DJ],Cytotoxicity at 50 μg/mL Pseudomonas,P. aeruginosa,"* (reduced P. aeruginosa cytotoxicity to 99-75% of untreated, wild type levels at 50 mg/mL)"
same,EC50,LcrF (VirF); [1],10 to 25 µM
same,activity at 50 µg/mL,Y. pseudotuberculosis,< 75%
O=C(Nc1ccc(-c2nc3ccc([N+](=O)[O-])cc3n2O)c(F)c1)c1ccc(F)cc1 [DS],Cytotoxicity at 50 μg/mL Pseudomonas,P. aeruginosa,"* (reduced P. aeruginosa cytotoxicity to 99-75% of untreated, wild type levels at 50 mg/mL)"
same,EC50,ExsA,10 to 25 µM
same,EC50,LcrF (VirF); [1],10 to 25 µM
same,activity at 50 µg/mL,Y. pseudotuberculosis,< 75%
O=C(Nc1ccc(-c2nc3ccc([N+](=O)[O-])cc3n2O)cc1)c1ccc(-c2cncnc2)cc1 [DC],Cytotoxicity at 50 μg/mL Pseudomonas,P. aeruginosa,"* (reduced P. aeruginosa cytotoxicity to 99-75% of untreated, wild type levels at 50 mg/mL)"
same,EC50,ExsA,10 to 25 µM
same,EC50,LcrF (VirF); [1],> 25 µM
same,activity at 50 µg/mL,Y. pseudotuberculosis,75 to 99%
"CCOc1cc2nc(-c3ccc(NC(=O)/C=C/c4ccc(F)cc4)cc3)n(O)c2cc1[N+](=O)[O-] [EV, (E)-N-[4-(5-Ethoxy-1-hydroxy-6-nitro-1H-benzoimidazol-2-yl)-phenyl]-3-(4-fluoro-phenyl)-acrylamide]",Cytotoxicity at 50 μg/mL Pseudomonas,P. aeruginosa,"** (reduced P. aeruginosa cytotoxicity below 75% of untreated, wild type levels at 50 mg/mL)"
same,EC50,LcrF (VirF); [1],10 to 25 µM
same,activity at 50 µg/mL,Y. pseudotuberculosis,75 to 99%
COc1ccc(/C=C/C(=O)Nc2ccc(-c3nc4ccc([N+](=O)[O-])cc4n3O)cc2)c(OC)c1 [AK],Cytotoxicity at 50 μg/mL Pseudomonas,P. aeruginosa,"* (reduced P. aeruginosa cytotoxicity to 99-75% of untreated, wild type levels at 50 mg/mL)"
same,EC50,LcrF (VirF); [1],> 25 µM
same,activity at 50 µg/mL,Y. pseudotuberculosis,75 to 99%
O=C(Nc1ccc(-c2nc3ccc([N+](=O)[O-])cc3n2O)cc1)/C(=C/c1ccccc1)c1ccccc1 [CQ],Cytotoxicity at 50 μg/mL Pseudomonas,P. aeruginosa,"** (reduced P. aeruginosa cytotoxicity below 75% of untreated, wild type levels at 50 mg/mL)"
same,EC50,ExsA,10 to 25 µM
same,activity at 50 µg/mL,Y. pseudotuberculosis,< 75%
CC(=O)c1ccc(C(=O)Nc2ccc(-c3nc4ccc(C#N)cc4n3O)cc2)cc1 [AA],Cytotoxicity at 50 μg/mL Pseudomonas,P. aeruginosa,"** (reduced P. aeruginosa cytotoxicity below 75% of untreated, wild type levels at 50 mg/mL)"
same,EC50,LcrF (VirF); [1],> 25 µM
same,activity at 50 µg/mL,Y. pseudotuberculosis,< 75%
"CCOP(=O)(COn1c(-c2ccc(NC(=O)/C=C/c3ccc(F)cc3)cc2)nc2ccc([N+](=O)[O-])cc21)OCC [ED, (2-{4-[(E)-3-(4-Fluoro-phenyl)-acrloylamino]-phenyl}-6-nitro-benzoimidazol-1-yloxymethyl)-phosphonic acid diethyl ester]",Cytotoxicity at 50 μg/mL Pseudomonas,P. aeruginosa,"* (reduced P. aeruginosa cytotoxicity to 99-75% of untreated, wild type levels at 50 mg/mL)"
same,EC50,ExsA,< 10 µM
same,EC50,LcrF (VirF); [1],> 25 µM
same,activity at 50 µg/mL,Y. pseudotuberculosis,< 75%
N#Cc1ccc2nc(-c3ccc(NC(=O)/C=C/c4ccccc4)cc3)n(O)c2c1 [CL],Cytotoxicity at 50 μg/mL Pseudomonas,P. aeruginosa,"* (reduced P. aeruginosa cytotoxicity to 99-75% of untreated, wild type levels at 50 mg/mL)"
same,EC50,ExsA,10 to 25 µM
same,EC50,LcrF (VirF); [1],10 to 25 µM
same,activity at 50 µg/mL,Y. pseudotuberculosis,< 75%
"O=C(/C=C/c1ccc(-n2cncn2)cc1)Nc1ccc(-c2nc3ccc([N+](=O)[O-])cc3n2O)cc1 [EU, (E)-N-[4-(1-Hydroxy-6-nitro-1H-benzoimidazol-2-yl)-phenyl]-3-(4-[1,2,4]triazol-1-yl-phenyl)-acrylamide]",Cytotoxicity at 50 μg/mL Pseudomonas,P. aeruginosa,"** (reduced P. aeruginosa cytotoxicity below 75% of untreated, wild type levels at 50 mg/mL)"
same,EC50,LcrF (VirF); [1],> 25 µM
same,activity at 50 µg/mL,Y. pseudotuberculosis,75 to 99%
COc1cc(C(=O)Nc2ccc(-c3nc4ccc([N+](=O)[O-])cc4n3O)cc2)ccc1F [DM],Cytotoxicity at 50 μg/mL Pseudomonas,P. aeruginosa,"* (reduced P. aeruginosa cytotoxicity to 99-75% of untreated, wild type levels at 50 mg/mL)"
same,EC50,ExsA,10 to 25 µM
same,EC50,LcrF (VirF); [1],10 to 25 µM
same,activity at 50 µg/mL,Y. pseudotuberculosis,< 75%
O=C(Nc1ccc(-c2nc3ccc([N+](=O)[O-])cc3n2O)cc1)/C(F)=C/c1ccccc1 [CR],Cytotoxicity at 50 μg/mL Pseudomonas,P. aeruginosa,"** (reduced P. aeruginosa cytotoxicity below 75% of untreated, wild type levels at 50 mg/mL)"
same,EC50,LcrF (VirF); [1],10 to 25 µM
same,activity at 50 µg/mL,Y. pseudotuberculosis,< 75%
CN(C)C(=O)c1ccc(C(=O)Nc2ccc(-c3nc4ccc([N+](=O)[O-])cc4n3O)cc2)cc1 [FB],Cytotoxicity at 50 μg/mL Pseudomonas,P. aeruginosa,"* (reduced P. aeruginosa cytotoxicity to 99-75% of untreated, wild type levels at 50 mg/mL)"
same,EC50,ExsA,> 25 µM
same,activity at 50 µg/mL,Y. pseudotuberculosis,< 75%
"Cc1cc2nc(-c3ccc(NC(=O)c4ccc(-c5cnco5)cc4)cc3)n(O)c2cc1[N+](=O)[O-] [EX, N-[4-(1-Hydroxy-5-methyl-6-nitro-1H-benzoimidazol-2-yl)-phenyl]-4-oxazol-5-v-benzamide]",Cytotoxicity at 50 μg/mL Pseudomonas,P. aeruginosa,"** (reduced P. aeruginosa cytotoxicity below 75% of untreated, wild type levels at 50 mg/mL)"
same,EC50,LcrF (VirF); [1],> 25 µM
same,activity at 50 µg/mL,Y. pseudotuberculosis,75 to 99%
Cc1ccc(/C=C/C(=O)Nc2ccc(-c3nc4ccc(C#N)cc4n3O)cc2)cc1 [CP],Cytotoxicity at 50 μg/mL Pseudomonas,P. aeruginosa,"* (reduced P. aeruginosa cytotoxicity to 99-75% of untreated, wild type levels at 50 mg/mL)"
same,EC50,LcrF (VirF); [1],10 to 25 µM
same,activity at 50 µg/mL,Y. pseudotuberculosis,75 to 99%
"CC(=O)c1ccc(C(=O)Nc2ccc(-c3nc4ccc([N+](=O)[O-])cc4n3O)cc2F)cc1 [EM, 4-Acetyl-N-[2-fluoro-4-(1-hydroxy-6-nitro-H-benzoimidazol-2-yl)-phenyl]-benzamide]",Cytotoxicity at 50 μg/mL Pseudomonas,P. aeruginosa,"* (reduced P. aeruginosa cytotoxicity to 99-75% of untreated, wild type levels at 50 mg/mL)"
same,EC50,LcrF (VirF); [1],10 to 25 µM
same,activity at 50 µg/mL,Y. pseudotuberculosis,< 75%
O=C(/C=C/c1ccc(F)cc1)Nc1ccc(-c2nc3ccc([N+](=O)[O-])cc3n2O)nc1 [DZ],Cytotoxicity at 50 μg/mL Pseudomonas,P. aeruginosa,"* (reduced P. aeruginosa cytotoxicity to 99-75% of untreated, wild type levels at 50 mg/mL)"
same,EC50,LcrF (VirF); [1],10 to 25 µM
same,activity at 50 µg/mL,Y. pseudotuberculosis,< 75%
O=C(C/C=C/c1ccccc1)Nc1ccc(-c2nc3ccc([N+](=O)[O-])cc3n2O)cc1 [CY],Cytotoxicity at 50 μg/mL Pseudomonas,P. aeruginosa,"* (reduced P. aeruginosa cytotoxicity to 99-75% of untreated, wild type levels at 50 mg/mL)"
same,EC50,LcrF (VirF); [1],> 25 µM
same,activity at 50 µg/mL,Y. pseudotuberculosis,< 75%
CC(=O)c1ccc(C(=O)Nc2ccc(-c3nc4cc(C)c([N+](=O)[O-])cc4n3O)cc2)cc1 [EQ],Cytotoxicity at 50 μg/mL Pseudomonas,P. aeruginosa,"* (reduced P. aeruginosa cytotoxicity to 99-75% of untreated, wild type levels at 50 mg/mL)"
same,activity at 50 µg/mL,Y. pseudotuberculosis,< 75%
